Read-outs that look alike come from different tables or passages of the source.

For assay [1], the target named is T1, unphosphorylated PDGFRβ kinase (uPDGFRβ, Seq. ID No. 3) (Homo sapiens, UniProt P09619).
T1 construct: purchased DeCode
In words: uPDGFRβ kinase assay (ADP production coupled to pyruvate kinase/lactate dehydrogenase). Format: biochemical. The conditions noted are these: enzymatic assay, ATP 500 μM. The procedure: Unphosphorylated […]β) Kinase (Seq. ID No. 3) Assay Activity of unphosphorylated PDGFRβ kinase ([…] No. 3) was determined by following the production of ADP from the kinase reaction with ATP and poly E4Y as substrates through coupling with the pyruvate kinase/lactate dehydrogenase system (e.g., Schindler et al. Science (2000) 289: 1938-1942). In this assay, the oxidation of NADH (thus the decrease at A340 nm) was continuously monitored spectrophometrically. The reaction mixture (100 μL) contained PDGFRβ (DeCode, 15.7 nM), polyE4Y (2.5 mg/mL), MgCl2 (10 mM), pyruvate kinase (4 units), lactate dehydrogenase (0.7 units), phosphoenol pyruvate (1 mM) and NADH (0.28 mM) and ATP (500 μM) in a 90 mM Tris buffer containing 0.2% octyl-glucoside and 1% DMSO, at pH 7.5. The inhibition reaction was started by mixing serial diluted test compound with the above reaction mixture. The absorption at 340 nm was monitored continuously for 4 h at 30° C. on a Polarstar Optima or Synergy 2 plate reader. The reaction rate was calculated using the 1.5 to 2.5 h time frame. Percent inhibition was obtained by comparison of reaction rate with that of a control (i.e. with no test compound). IC50 values were calculated from a series of percent inhibition values determined at a range of inhibitor concentrations using software routines as implemented in the GraphPad Prism software package.

A further assay relates to osteoclast precursors. In words: Osteoclast tartrate-resistant acid phosphatase assay. The format is cell-based. The conditions noted are these: tartrate-resistant acid phosphatase activity, RANKL and M-CSF, 7-14 days. On the procedure:
Osteoclast Tartrate-Resistant Acid Phosphatase Assay
A serial dilution of test compound was dispensed into a 384-well black clear bottom plate (Nalge Nunc International, Rochester, N.Y.). Compound was diluted by the addition of DMEM media supplemented with 10% characterized fetal bovine serum (Invitrogen, Carlsbad, Calif.). Diluted compound was transferred to a 384-well black clear bottom plate. Two-thousand five hundred osteoclast precursors (Lonza, Walkersville, Md.) were added per well in growth media containing Receptor Activator of Nuclear Factor Kappa-beta ligand (RANKL) and M-CSF (R&D Systems, Minneapolis, Minn.). Plates were incubated for 7-14 days at 37 degrees Celsius, 5% CO2, and 95% humidity to allow differentiation of osteoclast precursors. At the end of the incubation period, 10 μL of supernatant from each well was transferred to a clear 384-well plate. Tartrate-resistant acid phosphatase activity in the supernatant samples was determined using an acid phosphatase assay kit (Sigma, St. Louis, Mo.). Absorbance was measured at 550 nm using a plate reader. Data was analyzed using Prism software (Graphpad, San Diego, Calif.) to calculate IC50 values.

Assay [2] addresses T2, unphosphorylated c-KIT kinase (uKIT, Seq. ID no. 2) (Homo sapiens, UniProt P10721).
T2 construct: uKit with N-terminal GST fusion used for screening
In words: uKit kinase assay (ADP production coupled to pyruvate kinase/lactate dehydrogenase). Format: biochemical. As to conditions: read-out: uKIT. On the procedure: In this assay, the oxidation of NADH (thus the decrease at A340 nm) was continuously monitored spectrophometrically. […] The inhibition reaction was started by mixing serial diluted test compound with the above reaction mixture. The absorption at 340 nm was monitored continuously for 4 hours at 30° C. on Synergy 2 plate reader (BioTech).

T1 sequence (P09619 557-1106): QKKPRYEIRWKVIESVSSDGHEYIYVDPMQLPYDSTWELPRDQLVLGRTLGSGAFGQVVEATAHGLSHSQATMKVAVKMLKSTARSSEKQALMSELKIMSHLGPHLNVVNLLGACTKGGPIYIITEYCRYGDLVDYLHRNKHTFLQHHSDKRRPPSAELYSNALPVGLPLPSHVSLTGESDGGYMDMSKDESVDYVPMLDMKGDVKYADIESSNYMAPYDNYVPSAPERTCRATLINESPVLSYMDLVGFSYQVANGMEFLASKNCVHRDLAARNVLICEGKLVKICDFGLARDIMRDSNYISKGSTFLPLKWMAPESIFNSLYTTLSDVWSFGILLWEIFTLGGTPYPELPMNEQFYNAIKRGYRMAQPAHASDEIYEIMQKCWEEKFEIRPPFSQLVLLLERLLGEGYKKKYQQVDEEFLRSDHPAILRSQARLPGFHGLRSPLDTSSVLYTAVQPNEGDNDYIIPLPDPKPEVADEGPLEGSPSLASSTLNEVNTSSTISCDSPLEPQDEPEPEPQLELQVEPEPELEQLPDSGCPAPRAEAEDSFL
T2 sequence (P10721 with tags, fused parts or gaps): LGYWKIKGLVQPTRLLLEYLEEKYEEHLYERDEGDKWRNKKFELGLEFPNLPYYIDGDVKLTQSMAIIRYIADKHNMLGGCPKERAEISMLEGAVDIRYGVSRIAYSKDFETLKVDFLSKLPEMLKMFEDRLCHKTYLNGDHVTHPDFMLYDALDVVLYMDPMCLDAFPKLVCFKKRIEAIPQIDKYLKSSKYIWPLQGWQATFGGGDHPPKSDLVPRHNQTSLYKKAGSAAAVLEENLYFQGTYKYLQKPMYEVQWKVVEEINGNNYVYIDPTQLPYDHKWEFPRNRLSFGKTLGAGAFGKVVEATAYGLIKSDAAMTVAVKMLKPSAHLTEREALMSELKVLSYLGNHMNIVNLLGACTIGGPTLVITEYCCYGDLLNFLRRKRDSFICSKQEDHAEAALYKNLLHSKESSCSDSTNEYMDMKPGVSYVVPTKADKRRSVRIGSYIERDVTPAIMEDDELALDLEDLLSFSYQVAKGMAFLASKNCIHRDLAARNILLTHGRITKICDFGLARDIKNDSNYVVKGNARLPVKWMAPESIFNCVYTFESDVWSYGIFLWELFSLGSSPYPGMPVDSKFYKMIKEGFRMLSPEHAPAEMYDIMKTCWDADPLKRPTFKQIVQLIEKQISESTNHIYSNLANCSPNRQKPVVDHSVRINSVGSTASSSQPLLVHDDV

Regarding `CCNc1ncc(-c2ccc(Oc3ccnc(-c4cnn(C)c4)c3)c(C)n2)c(=O)[nH]1` [Example 1, 2-(ethylamino)-5-(6-methyl-5-((2-(1-methyl-1H-pyrazol-4-yl)pyridin-4-yl)oxy)pyridin-2-yl)pyrimidin-4(3H)-one], the IC50 is over 1000 nM in assay [1]; 10 to 100 nM in the assay on osteoclast precursors; over 1000 nM in assay [2] (enzymatic assay, ATP 2000 μM).

As for `Cc1nc(-c2cnc(N(C)C)[nH]c2=O)ccc1Oc1ccnc(-c2cnn(C)c2)c1` [Example 2, 2-(dimethylamino)-5-(6-methyl-5-((2-(1-methyl-1H-pyrazol-4-yl)pyridin-4-yl)oxy)pyridin-2-yl)pyrimidin-4(3H)-one], the IC50 in assay [1] is over 1000 nM; in the assay on osteoclast precursors, 10 to 100 nM; in assay [2] (enzymatic assay, ATP 2000 μM), over 1000 nM.

As to `Cc1nc(-c2cnc(NC(C)C)[nH]c2=O)ccc1Oc1ccnc(-c2cnn(C)c2)c1` [Example 3, 2-(isopropylamino)-5-(6-methyl-5-((2-(1-methyl-1H-pyrazol-4-yl)pyridin-4-yl)oxy)pyridin-2-yl)pyrimidin-4(3H)-one], the IC50 in assay [1] is over 1000 nM; with osteoclast precursors, 10 to 100 nM; in assay [2] (enzymatic assay, ATP 2000 μM), 100 to 1000 nM.

As to `CCNc1ncc(-c2ccc(Oc3ccnc(-c4ccc(C)nc4)c3)c(C)n2)c(=O)[nH]1` [Example 4, 2-(ethylamino)-5-(6-methyl-5-((6′-methyl-[2,3′-bipyridin]-4-yl)oxy)pyridin-2-yl)pyrimidin-4(3H)-one], the IC50 in assay [1] is over 1000 nM; in the assay with osteoclast precursors it was 100 to 1000 nM; in assay [2] (enzymatic assay, ATP 2000 μM) it was over 1000 nM.

As to `CCNc1ncc(-c2ccc(Oc3ccnc(-n4cnc(C)c4)c3)c(C)n2)c(=O)[nH]1` [Example 5, 2-(ethylamino)-5-(6-methyl-5-((2-(4-methyl-1H-imidazol-1-yl)pyridin-4-yl)oxy)pyridin-2-yl)pyrimidin-4(3H)-one], the IC50 was over 1000 nM in assay [1]; 100 to 1000 nM in the assay on osteoclast precursors; over 1000 nM in assay [2] (enzymatic assay, ATP 2000 μM).

On to `CNc1ncc(-c2ccc(Oc3ccnc(-c4cnn(C)c4)c3)c(C)n2)c(=O)[nH]1` [Example 7, 5-(6-methyl-5-((2-(1-methyl-1H-pyrazol-4-yl)pyridin-4-yl)oxy)pyridin-2-yl)-2-(methylamino)pyrimidin-4(3H)-one], for which the IC50 in assay [1] was over 1000 nM; in the assay on osteoclast precursors, 100 to 1000 nM; in assay [2] (enzymatic assay, ATP 2000 μM), 100 to 1000 nM.

Regarding `CCNc1ncc(-c2ccc(Oc3ccnc(-c4cnn(C)c4)c3)cn2)c(=O)[nH]1` [Example 8, 2-(ethylamino)-5-(5-((2-(1-methyl-1H-pyrazol-4-yl)pyridin-4-yl)oxy)pyridin-2-yl)pyrimidin-4(3H)-one], the IC50 is over 1000 nM in assay [1]; 100 to 1000 nM with osteoclast precursors; 100 to 1000 nM in assay [2] (enzymatic assay, ATP 2000 μM).

Consider `Cc1nc(-c2cnc(N3CCCC3)[nH]c2=O)ccc1Oc1ccnc(-c2cnn(C)c2)c1` [Example 9, 5-(6-methyl-5-((2-(1-methyl-1H-pyrazol-4-yl)pyridin-4-yl)oxy)pyridin-2-yl)-2-(pyrrolidin-1-yl)pyrimidin-4(3H)-one], for which the IC50 in assay [1] is over 1000 nM; with osteoclast precursors, 10 to 100 nM; in assay [2] it was over 1000 nM.

`CNC(=O)c1cc(Oc2ccc(-c3cnc(NC(C)C)[nH]c3=O)nc2)ccn1` [Example 11, 4-((6-(2-(isopropylamino)-6-oxo-1,6-dihydropyrimidin-5-yl)pyridin-3-yl)oxy)-N-methylpicolinamide]: the IC50 was over 1000 nM in assay [1]; 10 to 100 nM with osteoclast precursors; over 1000 nM in assay [2] (enzymatic assay, ATP 2000 μM).

Regarding `Cc1nc(-c2cnc(N3CCOCC3)[nH]c2=O)ccc1Oc1ccnc(-c2cnn(C)c2)c1` [Example 12, 5-(6-methyl-5-((2-(1-methyl-1H-pyrazol-4-yl)pyridin-4-yl)oxy)pyridin-2-yl)-2-morpholinopyrimidin-4(3H)-one], the IC50 in assay [1] is over 1000 nM; with osteoclast precursors, 10 to 100 nM; in assay [2] (enzymatic assay, ATP 2000 μM), over 1000 nM.

Consider `Cc1nc(-c2cnc(N3CCCCC3)[nH]c2=O)ccc1Oc1ccnc(-c2cnn(C)c2)c1` [Example 13, 5-(6-methyl-5-((2-(1-methyl-1H-pyrazol-4-yl)pyridin-4-yl)oxy)pyridin-2-yl)-2-(piperidin-1-yl)pyrimidin-4(3H)-one], for which the IC50 in assay [1] was over 1000 nM; in the assay with osteoclast precursors, 10 to 100 nM; in assay [2] (enzymatic assay, ATP 2000 μM), over 1000 nM.

On to `Cc1nc(-c2cnc(NC3CC3)[nH]c2=O)ccc1Oc1ccnc(-c2cnn(C)c2)c1` [Example 14, 2-(cyclopropylamino)-5-(6-methyl-5-((2-(1-methyl-1H-pyrazol-4-yl)pyridin-4-yl)oxy)pyridin-2-yl)pyrimidin-4(3H)-one], for which the IC50 was over 1000 nM in assay [1]; 10 to 100 nM in the assay with osteoclast precursors; over 1000 nM in assay [2] (enzymatic assay, ATP 2000 μM).

Regarding `Cc1nc(-c2cnc(NC3CCCC3)[nH]c2=O)ccc1Oc1ccnc(-c2cnn(C)c2)c1` [Example 15, 2-(cyclopentylamino)-5-(6-methyl-5-((2-(1-methyl-1H-pyrazol-4-yl)pyridin-4-yl)oxy)pyridin-2-yl)pyrimidin-4(3H)-one], the IC50 in assay [1] is 100 to 1000 nM; with osteoclast precursors it was under 10 nM; in assay [2] (enzymatic assay, ATP 2000 μM), 100 to 1000 nM.

As to `Cc1nc(-c2cnc(NC3CC3)n(C)c2=O)ccc1Oc1ccnc(-c2cnn(C)c2)c1` [Example 17, 2-(cyclopropylamino)-3-methyl-5-(6-methyl-5-((2-(1-methyl-1H-pyrazol-4-yl)pyridin-4-yl)oxy)pyridin-2-yl)pyrimidin-4(3H)-one], the IC50 in assay [1] was over 1000 nM; in the assay with osteoclast precursors, under 10 nM; in assay [2] (enzymatic assay, ATP 2000 μM), over 1000 nM.

In the case of `CC(=O)Nc1cc(Oc2ccc(-c3cnc(NC(C)C)[nH]c3=O)nc2C)ccn1` [Example 19, N-(4-((6-(2-(isopropylamino)-6-oxo-1,6-dihydropyrimidin-5-yl)-2-methylpyridin-3-yl)oxy)pyridin-2-yl)acetamide], the IC50 in assay [1] lay in the range of 100 to 1000 nM; in the assay on osteoclast precursors it was 10 to 100 nM; in assay [2] (enzymatic assay, ATP 2000 μM), 100 to 1000 nM.

Consider `Cc1cc(-c2cnc(N3CCCC3)[nH]c2=O)ncc1Oc1ccnc(-c2cnn(C)c2)c1` [Example 20, 5-(4-methyl-5-((2-(1-methyl-1H-pyrazol-4-yl)pyridin-4-yl)oxy)pyridin-2-yl)-2-(pyrrolidin-1-yl)pyrimidin-4(3H)-one], for which the IC50 in assay [1] is 100 to 1000 nM; in the assay with osteoclast precursors, under 10 nM; in assay [2] (enzymatic assay, ATP 2000 μM) it was 100 to 1000 nM.

`CCn1cc(-c2cc(Oc3ccc(-c4cnc(NC(C)C)[nH]c4=O)nc3C)ccn2)cn1` [Example 21, 5-(5-((2-(1-ethyl-1H-pyrazol-4-yl)pyridin-4-yl)oxy)-6-methylpyridin-2-yl)-2-(isopropylamino)pyrimidin-4(3H)-one]: the IC50 in assay [1] is over 1000 nM; with osteoclast precursors, 10 to 100 nM; in assay [2] (enzymatic assay, ATP 2000 μM) it was over 1000 nM.

`Cc1nc(-c2cnc(NC3CCOCC3)[nH]c2=O)ccc1Oc1ccnc(-c2cnn(C)c2)c1` [Example 27, 5-(6-methyl-5-((2-(1-methyl-1H-pyrazol-4-yl)pyridin-4-yl)oxy)pyridin-2-yl)-2-((tetrahydro-2H-pyran-4-yl)amino)pyrimidin-4(3H)-one]: the IC50 in assay [1] is over 1000 nM; in the assay on osteoclast precursors, 10 to 100 nM; in assay [2] (enzymatic assay, ATP 2000 μM), over 1000 nM.

Source of the values: patent US9181223B2, “2-aminopyrimidin-6-ones and analogs exhibiting anti-cancer and anti-proliferative activities” (Deciphera Pharmaceuticals, LLC, priority 2013, dated 2015).
